In ChEMBL document CHEMBL1201862, “PubChem BioAssay data set” (2004):
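Each compound was tested at five concentrations against cells in 96-well plates for 48 hours. GI50 marks 50% less growth.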 Activity calls are given as the source filed them. Rule as the data show it: active = GI50 up to about 1.1 µM and inactive = higher.

Key:
Test in all cases: NCI tumour cell line growth inhibition, 48 h
[1] = system: ACHN
[2] = system: EKVX
[3] = system: HCT-116
[4] = system: HCT-15
[5] = system: HOP-62
[6] = system: HT-29
[7] = system: IGROV-1
[8] = system: KM12
[9] = system: LOX IMVI
[10] = system: MCF7
[11] = system: NCI/ADR-RES
[12] = system: OVCAR-3
[13] = system: OVCAR-4
[14] = system: OVCAR-5
[15] = system: SK-MEL-2
[16] = system: SNB-19
[17] = system: U-251
[18] = system: SF-539
[19] = system: TK-10
[20] = system: HOP-92

SMILES	GI50 [1]	GI50 [2]	GI50 [3]	GI50 [4]	GI50 [5]	GI50 [6]	GI50 [7]	GI50 [8]	GI50 [9]	GI50 [10]	GI50 [11]	GI50 [12]	GI50 [13]	GI50 [14]	GI50 [15]	GI50 [16]	GI50 [17]	GI50 [18]	GI50 [19]	GI50 [20]
CNC(=O)CNC(=O)N(C[C@@H]1CCCN1C(=O)[C@H](CC(C)C)NC(=O)OC(C)(C)C)C(C)C	> 100 µM (inactive)	> 100 µM (inactive)	> 100 µM (inactive)	> 100 µM	> 100 µM (inactive)	> 100 µM (inactive)	> 100 µM (inactive)	> 100 µM (inactive)	> 100 µM (inactive)	> 100 µM (inactive)	> 100 µM (inactive)	> 100 µM (inactive)	> 100 µM (inactive)	> 100 µM (inactive)	> 100 µM (inactive)	> 100 µM (inactive)	> 100 µM (inactive)			
CC1(c2ccc(Cl)cc2)C=C(c2ccc(Cl)cc2)C(C#N)=C(C(C#N)C#N)N1.CNC (stereo unspecified)	16.6 µM (inactive)	16.6 µM (inactive)	14 µM (inactive)	15.1 µM	16.5 µM (inactive)	16.6 µM (inactive)	12.9 µM (inactive)	17.3 µM (inactive)	17 µM (inactive)	16.6 µM (inactive)	17.9 µM (inactive)	8.75 µM (inactive)	15.1 µM (inactive)	18.1 µM (inactive)	19.5 µM (inactive)	18.2 µM (inactive)	16.1 µM (inactive)	19.5 µM (inactive)	18.7 µM (inactive)	
c1cn(C23C4C5C6C4C2C6C53)cn1 (stereo unspecified)	> 100 µM (inactive)	> 100 µM (inactive)	> 100 µM (inactive)	> 100 µM	> 100 µM (inactive)	> 100 µM (inactive)	> 100 µM (inactive)	> 100 µM (inactive)	> 100 µM (inactive)	> 100 µM (inactive)	> 100 µM (inactive)			> 100 µM (inactive)	> 100 µM (inactive)	> 100 µM (inactive)	> 100 µM (inactive)	> 100 µM (inactive)	> 100 µM (inactive)	
Oc1c(C2=NNC(c3ccc(Cl)cc3Cl)C2)ccc2ccccc12 (stereo unspecified)	38.5 µM (inactive)		33.6 µM (inactive)	34.9 µM	38.7 µM (inactive)	31.4 µM (inactive)	14.4 µM (inactive)	26.2 µM (inactive)		30.2 µM (inactive)	22 µM (inactive)	20.1 µM (inactive)	58.6 µM (inactive)	42.7 µM (inactive)	35.8 µM (inactive)		32.5 µM (inactive)	30.5 µM (inactive)	66.2 µM (inactive)	31.7 µM (inactive)
CCOP(=O)(/C=C/n1ccc(=O)[nH]c1=O)OCC	> 100 µM (inactive)	> 100 µM (inactive)	> 100 µM (inactive)	> 100 µM	> 100 µM (inactive)	> 100 µM (inactive)	> 100 µM (inactive)	> 100 µM (inactive)	> 100 µM (inactive)	> 100 µM (inactive)	> 100 µM (inactive)	> 100 µM (inactive)	> 100 µM (inactive)	> 100 µM (inactive)	> 100 µM (inactive)	> 100 µM (inactive)	> 100 µM (inactive)	> 100 µM (inactive)	> 100 µM (inactive)	
O=[N+]([O-])/C(C(Cl)=C(Cl)Cl)=C(\NCc1ccccc1)Sc1ccccc1	35.7 µM (inactive)	38.4 µM (inactive)	32.4 µM (inactive)	17.3 µM	24 µM (inactive)	38.9 µM (inactive)		16.5 µM (inactive)	13.7 µM (inactive)	32.4 µM (inactive)	24.5 µM (inactive)	17.6 µM (inactive)	28.6 µM (inactive)	47 µM (inactive)	25.1 µM (inactive)	41.2 µM (inactive)	32.3 µM (inactive)	19.9 µM (inactive)		
O=c1[nH]nc(Cc2ccc(Cl)cc2)n1/N=C/c1cccs1	75.7 µM (inactive)	23 µM (inactive)	30.8 µM (inactive)	> 100 µM	22.1 µM (inactive)	14 µM (inactive)	23.1 µM (inactive)	> 100 µM (inactive)		44.3 µM (inactive)	50.5 µM (inactive)	> 100 µM (inactive)	> 100 µM (inactive)	73.3 µM (inactive)	22.4 µM (inactive)	20.4 µM (inactive)	28.4 µM (inactive)	41.3 µM (inactive)		24.6 µM (inactive)
C=CCN(C(=O)OC(C)(C)C)C1=CC2C(C)=CN(S(=O)(=O)c3ccccc3)C2C(OCc2ccccc2)=C1 (stereo unspecified)	> 100 µM (inactive)	> 100 µM (inactive)	54 µM (inactive)	> 100 µM	> 100 µM (inactive)	13.4 µM (inactive)	> 100 µM (inactive)	> 100 µM (inactive)	> 100 µM (inactive)	> 100 µM (inactive)	> 100 µM (inactive)	> 100 µM (inactive)	> 100 µM (inactive)	> 100 µM (inactive)	> 100 µM (inactive)		> 100 µM (inactive)		> 100 µM (inactive)	
CC1(C)CC(=O)C(=CN2C(=O)CNC2=S)C(=O)C1	> 100 µM (inactive)	> 100 µM (inactive)	> 100 µM (inactive)	> 100 µM	> 100 µM (inactive)		> 100 µM (inactive)	> 100 µM (inactive)		> 100 µM (inactive)	> 100 µM (inactive)	> 100 µM (inactive)	> 100 µM (inactive)	> 100 µM (inactive)	> 100 µM (inactive)	> 100 µM (inactive)	> 100 µM (inactive)	> 100 µM (inactive)	> 100 µM (inactive)	> 100 µM (inactive)
O=[N+]([O-])c1cccc(/N=N/c2c(O)c(S(=O)(=O)O)cc3cc(S(=O)(=O)O)ccc23)c1	> 100 µM (inactive)	> 100 µM (inactive)	> 100 µM (inactive)	> 100 µM	> 100 µM (inactive)		> 100 µM (inactive)	> 100 µM (inactive)		67.8 µM (inactive)	> 100 µM (inactive)	> 100 µM (inactive)	> 100 µM (inactive)	> 100 µM (inactive)	> 100 µM (inactive)	> 100 µM (inactive)	> 100 µM (inactive)	> 100 µM (inactive)	> 100 µM (inactive)	> 100 µM (inactive)
N#C/C(=C\c1cc(Br)c(O)c(Br)c1)c1ccccn1	90.6 µM (inactive)	26.7 µM (inactive)	> 100 µM (inactive)	41.2 µM	53.2 µM (inactive)	59 µM (inactive)	> 100 µM (inactive)	39.1 µM (inactive)		89.3 µM (inactive)	43 µM (inactive)	49.3 µM (inactive)	61 µM (inactive)	51.4 µM (inactive)	47.9 µM (inactive)	46.1 µM (inactive)	22.9 µM (inactive)	84.7 µM (inactive)	80.2 µM (inactive)	14.5 µM (inactive)
